Reference: patent US10952940B2, “Reagents and methods for mineralization of tooth enamel” (UNIVERSITY OF WASHINGTON, priority 2016, dated 2021)
“Also recorded” adds a separate entry of the source.

Key:
Set-up in all cases: species or system human
[1] = Vicker's microhardness of mineralized tooth surface; settings: 10 kg applied load, on the surface, n ≥ 20
Method: In addition to nanoindenation measurements, microhardness was also performed on the surface to quantitatively assess the mechanical properties of the mineral layers with larger areas and volumes including the underlying enamel as a composite. Vicker's microhardness was performed on at room temperature using Vicker's indenter on a Wilson Hardness Tukon 1202 microhardness tester at 10 kg applied load (Illinois Tool Works, Lake Bluff, Ill.). At least 20 measurements per group were recorded for obtaining an average and statistical analysis.
Microhardness and nanoindentation differ in both loading range and measurement method as shown in the schematic in FIG. 14 and, for these reasons, both were used in the present work to assess the mechanical durability of the remineralized layers on artificially formed lesions on intact human teeth. In the case of microhardness (Vickers indenter), the measurement was a static one in that the load was applied, released and hardness was obtained by measuring the post-indentation projected area of the indented region (foot print). This method therefore provides information about only the plastically deformed response (plastic deformation) of the material. Furthermore the load applied in this study was 10 kg, lowest allowable by the instrument.

[2] = Structural characterization of remineralized layer by TEM; settings: TEM of fragments shaved off the surface; listed as group 6
Method: After remineralization steps were completed, TEM samples were collected by carefully shaving off the top most surface of the remineralized layer from the artificially created white spot lesion using a clean razor blade. The shaved particles were suspended in 100% ethanol, and the suspension was drop-casted onto a carbon coated TEM grid, which was then vacuum dried before TEM characterization. TEM bright field imaging (BF) imaging and selected areas diffraction were carried out using an FEI Tecnai (FEI, Hillboro, Oreg., USA) operating at 200 keV.
Structural and phase characterization of the samples from all groups were undertaken by transmission electron microscopy imaging and diffraction analysis. This is because x-ray diffraction characterization requires large enough volume with 10s of lam mass thickness and larger spatial sampling, 100s of μms or larger areas. Since the mineralized layer is thin, a few μms in all other group samples to 10 μm or so in group 6 samples using the peptide, TEM has been used to provide the most critical data, diffraction and phase identification. The TEM samples were prepared by gently shaving fragments off the surface of tooth specimens onto carbon-coated TEM grid to prepare and ensure electron transparent sections. All of the TEM data is included in FIG. 13 below for completeness (while only 1st, 4th and 6th columns of data were presented in FIG. 11).

[3] = Remineralization of artificial white spot lesions, SEM and EDXS analyses of new mineral layer; settings: for thickness of newly formed mineral layer: SEM of cross-sectioned samples, 1 hour treatment
Excerpt: Extracted teeth with no visible white spot lesions, caries, or any other kind of restorations were collected from dental clinics around the King County area (WA, USA) and disinfected in 10% aqueous bleach solutions. Prior to the experiments, the teeth were cleaned to remove visible blood, gross debris and soft connective tissue using a dental scaler under a light microscope.
Enamel was demineralized to create artificial lesions to mimic white spot lesions and/or incipient caries. The teeth were covered by lacquer leaving a 4-mm wide square window in the enamel close to cemento-enamel junction. The exposed areas of 4×4 mm enamel were treated with a cocktail of acetic acid/CaCl2/KH2PO4 for 2 weeks to establish up to 200 μm deep artificially created non-cavitated white spot lesions (WSL). Samples were then divided into control and test groups. Test groups were treated either with peptide, fluoride, or combination of both (Table 5).
Prior to remineralization, samples requiring peptide treatments (Groups 5 & 6) were incubated in 50 μL of 0.8 mM peptide dissolved in 50 mM Tris Buffer Solution (TBS) (pH:7.4) for 10 minutes at 37° C. Next, treatment samples were exposed to 50 mM TBS containing Ca^2+/PO4^3− (Groups 2, 5) or Ca^2+/PO4^3−/F^− (Groups 3, 4, 6) at concentrations as listed in Table 5 for 1 hour at 37° C., then rinsed with de-ionized (DI) water, dried by forced air and stored at room temperature until characterization.
After re-mineralization experiments were completed, secondary electron imaging (SEI) in the scanning electron microscope (SEM) was used to characterize the surface morphology and to show the thickness of newly formed mineral layer in cross-sections where applicable. Specimen preparation for SEM involved cutting a notch on the back side using a low speed saw (IsoMet™, Buehler, Lake Bluff, Ill., USA) before they were subjected to WSL formation and remineralization as described above. After remineralization step was completed, specimens were rinsed with DI water, air dried gently (<5 PSI), then carefully fractured into 2 pieces along the notch. One of the fractured pieces was mounted on a SEM stub with the mineralizing surface facing up for imaging the surface morphology and second piece was mounted with the cross-section facing up to show the thickness of mineral layer. Mounted specimens were then stored in vacuum for at least 2 hours to remove residual moisture which were then sputter coated with 5-nm thick platinum (SPI-Sputter Module Coater, SPI Supplies, West Chester, Pa., USA). SEM characterization was performed using an FEI Sirion microscope (Sirion, FEI, Hillboro, Oreg., USA) operating at 10 kV acceleration voltage. The chemical composition was measured by an onboard energy dispersive X-ray spectroscopy (EDXS) system (X-Max^N Si drift detector with AZtecEnergy software package, Oxford Instruments, Abingdon, Oxfordshire, UK). The measurements for each group were pooled from 5 specimens per group. The average values and standard deviations were calculated and expressed as the mean±standard error.

[4] = EDXS, 1 hour treatment at 37° C.

SYENSHSQAINVDRT [shADP5, 15-amino acid long amelogenin-derived peptide, shortened human ADP5]
Hardness (Vicker's microhardness) ([1]; listed as Group 6 (shADP5)): 140.6 +/− 11.3 HV10, MPa
Hardness (Vicker's microhardness) ([1]; listed as group 6): 140.6+11.3 HV10, MPa
structure of mineral found by TEM imaging and diffraction [2]: large particles (in the shown projection) of HAp; also recorded: HAp crystallites with aligned organization
delivery of fluoride into the mineral layer ([3]; EDXS): allows the delivery and incorporation of fluoride ions into the remineralized layer even at low F concentrations
Possible Mineral Formed [3, 4]: Only HAP
Remineralized Layer Ca/O [3, 4]: 0.56 ± 0.13
Remineralized Layer Ca/P ([3]; EDXS, 1 hour treatment at 37° C., listed as 6. Peptide only): 1.56 ± 0.12
Remineralized Layer Ca/P ([3]; EDXS, 1 hour treatment at 37° C., listed as Group 6): 1.54±0.12
Remineralized Layer Ca/P ([3]; EDXS, 1 hour treatment at 37° C., listed as Group-6): 1.56
thickness of newly formed mineral layer ([3]; listed as Group 6): 10 μm
thickness of newly formed mineral layer ([3]; listed as Group-6): > 10 μm
thickness of newly formed mineral layer ([3]; listed as Peptide alone): 10 μm
